Reference: the NIST ThermoML archive (doi:10.1021/je600519p)
± gives the expanded uncertainty stated by the source.

Experiment: refractive index (Na D-line) (dimensionless); xn = mol fraction of the nth substance listed
Details: 101 kPa, Liquid

CC(=O)c1ccccc1 [acetophenone] + CCCCCCO
refractive index
Details | 293.15 K | 303.15 K | 313.15 K | 323.15 K
x1 = 0.0498 | 1.4234 ± 0.0013 | 1.4196 ± 0.0013 | 1.4153 ± 0.0013 | 1.4113 ± 0.0013
x1 = 0.1009 | 1.4291 ± 0.0013 | 1.4253 ± 0.0013 | 1.421 ± 0.0013 | 1.417 ± 0.0013
x1 = 0.1517 | 1.4348 ± 0.0013 | 1.431 ± 0.0013 | 1.4267 ± 0.0013 | 1.4227 ± 0.0013
x1 = 0.2106 | 1.4415 ± 0.0013 | 1.4377 ± 0.0013 | 1.4334 ± 0.0013 | 1.4293 ± 0.0013
x1 = 0.2474 | 1.4457 ± 0.0013 | 1.4419 ± 0.0013 | 1.4376 ± 0.0013 | 1.4335 ± 0.0013
x1 = 0.3028 | 1.4521 ± 0.0013 | 1.4482 ± 0.0013 | 1.4439 ± 0.0013 | 1.4398 ± 0.0013
x1 = 0.3426 | 1.4567 ± 0.0013 | 1.4528 ± 0.0013 | 1.4484 ± 0.0013 | 1.4443 ± 0.0013
x1 = 0.3978 | 1.4631 ± 0.0013 | 1.4591 ± 0.0013 | 1.4547 ± 0.0013 | 1.4506 ± 0.0013
x1 = 0.4512 | 1.4693 ± 0.0013 | 1.4653 ± 0.0013 | 1.4608 ± 0.0013 | 1.4567 ± 0.0013
x1 = 0.4985 | 1.4748 ± 0.0013 | 1.4707 ± 0.0013 | 1.4662 ± 0.0013 | 1.4621 ± 0.0013
x1 = 0.5526 | 1.4811 ± 0.0013 | 1.4769 ± 0.0013 | 1.4724 ± 0.0013 | 1.4682 ± 0.0013
x1 = 0.6071 | 1.4874 ± 0.0013 | 1.4832 ± 0.0013 | 1.4786 ± 0.0013 | 1.4743 ± 0.0013
x1 = 0.6491 | 1.4923 ± 0.0013 | 1.488 ± 0.0013 | 1.4834 ± 0.0013 | 1.479 ± 0.0013
x1 = 0.7101 | 1.4994 ± 0.0013 | 1.495 ± 0.0013 | 1.4903 ± 0.0013 | 1.4858 ± 0.0013
x1 = 0.7485 | 1.5039 ± 0.0013 | 1.4994 ± 0.0013 | 1.4947 ± 0.0013 | 1.4901 ± 0.0013
x1 = 0.8019 | 1.5101 ± 0.0013 | 1.5056 ± 0.0013 | 1.5008 ± 0.0013 | 1.4962 ± 0.0013
x1 = 0.8521 | 1.516 ± 0.0013 | 1.5114 ± 0.0013 | 1.5066 ± 0.0013 | 1.5019 ± 0.0013
x1 = 0.9045 | 1.5222 ± 0.0013 | 1.5175 ± 0.0013 | 1.5126 ± 0.0013 | 1.5079 ± 0.0013
x1 = 0.9554 | 1.5283 ± 0.0013 | 1.5235 ± 0.0013 | 1.5185 ± 0.0013 | 1.5137 ± 0.0013
